From BindingDB's records for patent US20240299360 (Jiangsu Hengrui Pharmaceuticals, 2024)
Several values for one entry are separate records, joined by “and”; a condition that tells them apart may be missing. Identical values can stand only once.

Experiments:
[1] = target: T1, A disintegrin and metalloproteinase with thrombospondin motifs 5 (Homo sapiens, UniProt Q9UNA0); assay: In Vitro ELISA (Enzyme-Linked Immunosorbent Assay) of ADAMTS-5 Activity
T1 sequence (Q9UNA0 whole entry): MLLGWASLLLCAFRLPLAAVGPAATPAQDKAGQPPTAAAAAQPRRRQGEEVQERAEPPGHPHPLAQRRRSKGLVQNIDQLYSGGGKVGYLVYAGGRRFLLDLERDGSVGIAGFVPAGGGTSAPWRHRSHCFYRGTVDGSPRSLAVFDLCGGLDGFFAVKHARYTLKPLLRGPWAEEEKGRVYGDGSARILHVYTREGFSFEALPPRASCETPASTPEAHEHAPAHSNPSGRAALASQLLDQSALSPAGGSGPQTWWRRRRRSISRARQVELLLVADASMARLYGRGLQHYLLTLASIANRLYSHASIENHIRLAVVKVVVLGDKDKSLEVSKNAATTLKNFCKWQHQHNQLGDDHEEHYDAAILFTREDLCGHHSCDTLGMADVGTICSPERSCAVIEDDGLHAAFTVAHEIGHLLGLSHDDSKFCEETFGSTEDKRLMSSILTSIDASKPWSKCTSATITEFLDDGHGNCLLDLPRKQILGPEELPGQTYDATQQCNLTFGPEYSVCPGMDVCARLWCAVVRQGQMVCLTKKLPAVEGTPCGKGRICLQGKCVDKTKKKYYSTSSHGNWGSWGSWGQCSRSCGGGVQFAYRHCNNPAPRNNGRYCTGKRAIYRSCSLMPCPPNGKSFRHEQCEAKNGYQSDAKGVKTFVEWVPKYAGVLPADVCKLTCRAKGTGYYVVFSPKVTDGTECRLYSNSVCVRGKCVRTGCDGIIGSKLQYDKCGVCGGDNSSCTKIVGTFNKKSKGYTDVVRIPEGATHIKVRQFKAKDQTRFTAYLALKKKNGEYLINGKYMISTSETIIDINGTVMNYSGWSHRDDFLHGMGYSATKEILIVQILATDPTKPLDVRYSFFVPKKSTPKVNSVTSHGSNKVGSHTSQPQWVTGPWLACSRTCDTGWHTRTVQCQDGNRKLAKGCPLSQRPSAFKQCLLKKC
Description: Table 2: In this assay, the enzymatic activity of recombinant ADAMTS-5 protein (catalog #2198-AD, R&D Systems) was assayed with a protein substrate, the aggrecan IGD protein. The aggrecan IGD protein is a polypeptide connecting human aggrecan globular domains 1 and 2 (T331-G458) expressed in E. Coli with a C-terminal His-tag (catalog #30411000, BIOTEZ). The enzymatic product ARGSVIL-peptide was detected using an ELISA kit from BioTEZ (catalog #30510111). An assay buffer containing 50 mM HEPES pH 7.5, 100 mM NaCl, 5 mM CaCl2), 0.1% CHAPS and 5% Glycerol was prepared. Recombinant ADAMTS-5 protein was diluted to 0.3 nM in the assay buffer. […] and 10 μl of compound solution was transferred to each well of a 96-well plate and incubated at room temperature for 15 minutes. Substrate aggrecan-IGD was diluted to 100 nM with the assay buffer and 20 μl was added to each well. The plate was incubated at 37° C. for 45 minutes. After incubation, the newly generated epitope ARGSVIL-peptides were measured using the Aggrecanase Activity ELISA Assay Kit following the manufacturer's instructions. Then, 100 μl of stop solution was added and the absorbance of each well was read at 450 nm, using […] as reference on a TECAN plate reader.

[2] = target: T2, A disintegrin and metalloproteinase with thrombospondin motifs 4 (Homo sapiens, UniProt O75173); assay: In Vitro Fluorescence Assay of ADAMTS-4 or ADAMTS-5 Activity
T2 sequence (O75173 whole entry): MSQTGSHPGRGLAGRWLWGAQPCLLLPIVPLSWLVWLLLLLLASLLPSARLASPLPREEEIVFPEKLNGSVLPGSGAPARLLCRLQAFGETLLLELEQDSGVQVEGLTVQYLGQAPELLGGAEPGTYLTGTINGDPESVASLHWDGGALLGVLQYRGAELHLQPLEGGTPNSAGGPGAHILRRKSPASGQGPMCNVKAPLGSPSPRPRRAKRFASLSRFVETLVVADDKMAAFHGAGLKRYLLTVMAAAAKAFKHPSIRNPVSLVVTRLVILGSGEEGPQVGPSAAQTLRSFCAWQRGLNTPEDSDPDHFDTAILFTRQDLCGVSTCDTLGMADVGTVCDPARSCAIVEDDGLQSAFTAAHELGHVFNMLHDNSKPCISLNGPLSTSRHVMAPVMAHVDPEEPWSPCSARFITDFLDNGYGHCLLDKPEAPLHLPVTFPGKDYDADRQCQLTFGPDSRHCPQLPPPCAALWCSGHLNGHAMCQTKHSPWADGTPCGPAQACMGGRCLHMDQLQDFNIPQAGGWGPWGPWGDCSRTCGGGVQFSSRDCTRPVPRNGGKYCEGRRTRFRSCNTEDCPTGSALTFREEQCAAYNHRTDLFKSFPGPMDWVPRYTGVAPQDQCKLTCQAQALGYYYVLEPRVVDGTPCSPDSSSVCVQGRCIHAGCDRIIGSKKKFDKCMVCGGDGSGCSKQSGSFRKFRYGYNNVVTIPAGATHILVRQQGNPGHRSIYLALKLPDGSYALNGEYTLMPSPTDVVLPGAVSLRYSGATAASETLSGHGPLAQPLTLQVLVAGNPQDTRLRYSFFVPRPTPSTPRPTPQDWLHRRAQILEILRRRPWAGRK
Description: Table 1: A FRET (fluorescence resonance energy transfer) peptide was cleaved by recombinant ADAMTS-4 or ADAMTS-5 proteins into two separate fragments resulting in an increase of fluorescence signal which was quantified. The peptide was 5-FAM-TEGEARGSVILLK(5-TAMRA)K-NH2, customized from ANASPEC. ADAMTS-4 recombinant protein (catalog #4307-AD) and ADAMTS-5 recombinant protein (catalog #2198-AD) were purchased from R&D Systems. An assay buffer containing 50 mM HEPES pH 7.5, 100 mM NaCl, 5 mM CaCl2, 0.1% CHAPS and 5% Glycerol was prepared. A volume of 2.5 μl of compound in the assay buffer was dispensed to a 384-well plate, and 2.5 μl of ADAMTS-4 or ADAMTS-5 protein (final concentration in the reaction was 10 nM) was added. The compounds and proteins were pre-incubated at room temperature for 15 minutes. Then, 5 μl of substrate was added to each well. The final substrate concentrations for ADAMTS-4 and ADAMTS-5 were 15 μM and 8 μM, respectively. The fluorescence signal in each well was determined, after incubation at 37° C. for 3 hours, on a TECAN plate reader (Excitation, 490 nm; Emission, 520 nm).

## CC(C[C@@]1(C2CC2)NC(=O)NC1=O)C(=O)N1Cc2cc(Cl)c(Cl)cc2C1C (some centres not stated) [US20240299360, Example 70]
[1]
  IC50: 26 nM and 83 nM
[2]
  IC50: 20 nM
